Data on 16 molecules can be found in PubChem BioAssay (NCI).

The structures appear in SMILES notation.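 The compound was tested at five concentrations on cells cultured in 96-well plates, with a 48-hour exposure period. The concentration for 50% growth inhibition is given as GI50. TGI: concentration producing complete growth inhibition.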

Assay in all cases: NCI anticancer screen, dose series, 48 h
The test system of assay [1] is DLD-1 colon.
For assay [2], the system named is DMS 114 small cell lung.
Assay [3] concerns DMS 273 small cell lung.
Assay [4] relates to KM20L2 colon.
The subject of assay [5] is LXFL 529 NSCLC.
In assay [6] the test system is RXF-631 renal.
Assay [7] has as its system SNB-78 CNS.
Assay [8] concerns XF 498 CNS.

As for `CS(=O)(=O)c1cc(=O)c2ccccc2s1`, the TGI in assay [1] stood at 4.21 µM; in assay [2] it was 11.2 µM; in assay [3] it was 20.7 µM; in assay [4] it was 28.2 µM; in assay [5], 3.02 µM; in assay [6], 21.3 µM. Besides, the results for the TGI in assay [7] and in assay [8] were 14 µM and 4.4 µM, respectively.

Take `CC(C)c1ccc(C(c2ccc(OCC(=O)O)cc2)c2ccc(C(C)C)cc(=O)c2O)c(O)c(=O)c1`: the TGI in assay [1] was 21.3 µM; in assay [2] it was 8.25 µM; in assay [3] it was 11.2 µM; in assay [4], > 100 µM; in assay [5], > 100 µM; in assay [6] it was 31.3 µM. For the same molecule, the values for the TGI in assay [7] and in assay [8] were 56.7 µM and 9.95 µM, respectively.

Regarding `CCCCOC(=O)NC(=O)c1cn(C2CCCCC2)c(=O)[nH]c1=O`, the TGI is > 100 µM in assay [1]; > 100 µM in assay [2]; > 100 µM in assay [3]; > 100 µM in assay [4]; 93 µM in assay [5]; > 100 µM in assay [7]. Besides, the TGI in assay [8] is > 100 µM.

Turning to `CC(=O)O.[Au].c1ccc([PH+](c2ccccc2)c2ccccc2)cc1`, the GI50 in assay [1] was 1.9 µM; in assay [3], 11.3 µM; in assay [4], 10.3 µM; in assay [5] it was 1.57 µM; in assay [7], 8.06 µM. The TGI in assay [1] was 4.4 µM; in assay [3], 55.4 µM; in assay [4], 35 µM; in assay [5], 2.92 µM; in assay [7] it was > 70.3 µM.

For the molecule `c1cc2c(ncc3cscc32)s1`, the TGI in assay [1], in assay [2], in assay [3], in assay [5], in assay [6] and in assay [7] was > 100 µM in each case. Further, the TGI in assay [8] was > 100 µM.

For the molecule `O=C(Nc1ccc(Cl)cc1Cl)C(=O)C(C(=O)c1ccncc1)C1OC(=O)c2ccccc21` (stereo not given), the TGI in assay [1], in assay [2], in assay [4], in assay [5], in assay [6] and in assay [7] was > 100 µM each time. Also, the TGI in assay [8] was > 100 µM.

Take `CC(C)c1cc2c(O)c(c1)Cc1cc(C(C)C)cc(c1O)Cc1cc(C(C)C)cc(c1O)Cc1cc(C(C)C)cc(c1O)C2`: the TGI in assay [1], in assay [2], in assay [3], in assay [4], in assay [7] and in assay [8] was > 100 µM each time.

For the molecule `CC(=O)N1C/C(=C\c2ccc(N(C)C)cc2)C(=O)/C(=C/c2ccc(N(C)C)cc2)C1`, the TGI was > 100 µM in assay [1]; 60.1 µM in assay [2]; > 100 µM in assay [3]; > 100 µM in assay [4]; > 100 µM in assay [5]; > 100 µM in assay [6]. Besides, the TGI in assay [7] and in assay [8] was > 100 µM in each case.

Regarding `COC(=O)c1cc(C)c(C)c2c1NC(=O)CNC2=O`, the TGI in assay [1], in assay [2], in assay [3], in assay [4], in assay [5] and in assay [7] was > 100 µM in each case. The TGI in assay [8] was > 100 µM.

Consider `COC(C(O)c1ccc2c(c1)OCO2)P(=O)(c1ccccc1)c1ccccc1` (stereo not given), for which the TGI in assay [1], in assay [2], in assay [3], in assay [7] and in assay [8] was > 100 µM throughout.

Regarding `Fc1ccc(C2SCc3nc4ccccc4n32)cc1Cl` (stereo not given), the TGI is > 100 µM in assay [1]; 57.4 µM in assay [2]; > 100 µM in assay [4]; 57.8 µM in assay [5]; > 100 µM in assay [6]; > 100 µM in assay [7]. Moreover, in assay [8], the TGI was found to be 31.7 µM.

Turning to `O=c1[nH]c(=O)n(C2OC(CO)C(O)C(O)C2O)cc1F` (stereo not given), the TGI in assay [1], in assay [2], in assay [4], in assay [5], in assay [7] and in assay [8] was > 100 µM in each case.

In the case of `Cc1ccc(-c2cc(=O)c3cc(C)c(C)c(C(=O)O)c3o2)cc1C`, the TGI in assay [1], in assay [2], in assay [3], in assay [4], in assay [5] and in assay [6] was > 100 µM in each case. The TGI in assay [7] is > 100 µM.

Take `CCc1ccc(Nc2ccc([N+](=O)[O-])cc2[N+](=O)[O-])cc1`: the TGI in assay [1], in assay [2], in assay [3], in assay [4], in assay [5] and in assay [7] was > 100 µM each time. Also, the TGI in assay [8] was > 100 µM.

Turning to `Cc1ccc2c(c1)CN(C(=O)CCC(=O)OCc1ccccc1)c1ccc(C)cc1CN2C(=O)CCC(=O)OCc1ccccc1`, the TGI in assay [1], in assay [2], in assay [3], in assay [4], in assay [5] and in assay [7] was > 100 µM in each case.

Take `c1cc[c]([Pb]([c]2ccccc2)[c]2ccccc2)cc1`: the GI50 in assay [1] is 11.9 µM; in assay [2], 1.92 µM; in assay [3] it was 10.4 µM; in assay [4], 23.3 µM; in assay [5] it was 4.03 µM; in assay [7], 13.2 µM. For the same molecule, the GI50 in assay [8] is 23.9 µM. Moreover, the TGI in assay [1] was 29.6 µM; in assay [2], 12.7 µM; in assay [3] it was 27.8 µM; in assay [4], 91.6 µM; in assay [5], 17.2 µM; in assay [7], > 100 µM. For the same molecule, the TGI in assay [8] came out at 42.7 µM.
